Measured values published in patent US20260216347A1, “Substituted Imidazo-Based Compounds as Ligand Directed Degraders of IRAK3” (Celgene Corporation, priority 2022, published 2026).

Molecular target: T1, IRAK3-ePL (Homo sapiens, UniProt Q9Y616)
T1 construct: expressed in transfected cells; host or cells: 293T CRBN OE/GSPT1 G575N KI cells, lentiviral transduction, puromycin selected
Assay: IRAK3-ePL overexpressing degradation assay (InCELL Hunter luminescence, dose response)
Type: cell-based
Conditions: for IRAK3 ePL degradation Ymin: lowest percentage of target protein remaining following compound treatment; for DC50: read-out: IRAK3 ePL degradation EC50
Procedure, shortened: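 Lenti-X 293T CRBN/GSPT1 G575N cells stably expressing IRAK3-ePL (5,000/well) treated overnight at 37° C with 10-point 3-fold dilutions from 10 μM, 0.2% DMSO. InCELL Hunter luminescence, background subtracted using Ataluren wells and normalized to DMSO; EC50 from four-parameter logistic fit.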

Row | SMILES | IRAK3 ePL degradation Ymin | DC50
1 | Cc1cccc(-c2cnc(Nc3cnn(C4CCN(CC(=O)N5CCN(c6ccc7c(c6)C(=O)N(C6CCC(=O)NC6=O)C7=O)CC5)CC4)c3)c3nccn23)c1 (stereo not shown) [Compound 1, 2-(2,6-dioxopiperidin-3-yl)-5-(4-(2-(4-(4-((5-(m-tolyl)imidazo[1,2-a]pyrazin-8-yl)amino)-1H-pyrazol-1-yl)piperidin-1-yl)acetyl)piperazin-1-yl)isoindoline-1,3-dione] | 31% | 39 nM
2 | Cc1cc(-c2cnc(Nc3cnn(C4CCN(CC(=O)N5CCN(c6ccc7c(c6)C(=O)N(C6CCC(=O)NC6=O)C7=O)CC5)CC4)c3)c3nccn23)c(F)cc1F (stereo not shown) [Compound 6, 5-(4-(2-(4-(4-((5-(2,4-difluoro-5-methylphenyl)imidazo[1,2-a]pyrazin-8-yl)amino)-1H-pyrazol-1-yl)piperidin-1-yl)acetyl)piperazin-1-yl)-2-(2,6-dioxopiperidin-3-yl)isoindoline-1,3-dione] | 17% | 22 nM
3 | Cc1cc(-c2cnc(Nc3cnn(C4CCN(CC(=O)N5CCN(c6ccc7c(c6)CN(C6CCC(=O)NC6=O)C7=O)CC5)CC4)c3)c3nccn23)c(F)cc1F (stereo not shown) [Compound 10, 3-(5-(4-(2-(4-(4-((5-(2,4-difluoro-5-methylphenyl)imidazo[1,2-a]pyrazin-8-yl)amino)-1H-pyrazol-1-yl)piperidin-1-yl)acetyl)piperazin-1-yl)-1-oxoisoindolin-2-yl)piperidine-2,6-dione] | 22% | 19 nM
4 | Cc1cc(-c2cnc(Nc3cnn([C@H]4CC[C@H](CCN5CCN(c6ccc(C7CCC(=O)NC7=O)cc6)CC5)CC4)c3)c3nccn23)c(F)cc1F (stereo partly drawn) [Compound 11, 3-(4-(4-(2-((trans)-4-(4-((5-(2,4-difluoro-5-methylphenyl)imidazo[1,2-a]pyrazin-8-yl)amino)-1H-pyrazol-1-yl)cyclohexyl)ethyl)piperazin-1-yl)phenyl)piperidine-2,6-dione] | 22% | 4 nM
5 | Cc1cccc(-c2cnc(Nc3cnn(C4CCN(CC(=O)N5CCN(c6ccc7c(c6)C(=O)N(C6CCC(=O)NC6=O)C7)CC5)CC4)c3)c3nccn23)c1 (stereo not shown) [Compound 16, 3-(1-oxo-6-(4-(2-(4-(4-((5-(m-tolyl)imidazo[1,2-a]pyrazin-8-yl)amino)-1H-pyrazol-1-yl)piperidin-1-yl)acetyl)piperazin-1-yl)isoindolin-2-yl)piperidine-2,6-dione] | 33% | 21 nM
6 | Cc1cc(-c2cnc(Nc3cnn(C4CCN(CC(=O)N5CCN(c6ccc7c(c6)C(=O)N(C6CCC(=O)NC6=O)C7)CC5)CC4)c3)c3nccn23)c(F)cc1F (stereo not shown) [Compound 18, 3-(6-(4-(2-(4-(4-((5-(2,4-difluoro-5-methylphenyl)imidazo[1,2-a]pyrazin-8-yl)amino)-1H-pyrazol-1-yl)piperidin-1-yl)acetyl)piperazin-1-yl)-1-oxoisoindolin-2-yl)piperidine-2,6-dione] | 22% | 9.7 nM
7 | Cc1cccc(-c2cnc(Nc3cnn(C4CCN(CC(=O)N5CCN(c6ccc7c(c6)CN(C6CCC(=O)NC6=O)C7=O)CC5)CC4)c3)c3nccn23)c1 (stereo not shown) [Compound 19, 3-(1-oxo-5-(4-(2-(4-(4-((5-(m-tolyl)imidazo[1,2-a]pyrazin-8-yl)amino)-1H-pyrazol-1-yl)piperidin-1-yl)acetyl)piperazin-1-yl)isoindolin-2-yl)piperidine-2,6-dione] | 18% | 12 nM
8 | Cc1cc(-c2cnc(Nc3cnn(C4CCN(CCN5CCN(c6cccc(C7CCC(=O)NC7=O)c6)CC5)CC4)c3)c3nccn23)c(F)cc1F (stereo not shown) [Compound 31, 3-(3-(4-(2-(4-(4-((5-(2,4-difluoro-5-methylphenyl)imdazo [1,2-a]pyrazin-8-yl)amino)-1H-pyrazol-1-yl)piperidin-1-yl)ethyl)piperazin-1-yl)phenyl) piperidine-2,6-dione] | 44% | 38 nM
9 | Cc1cc(-c2cnc(Nc3cnn(C4CCN(CCN5CCN(c6ccc(C7CCC(=O)NC7=O)cc6)CC5)CC4)c3)c3nccn23)ccc1F (stereo not shown) [Compound 33, 3-(4-(4-(2-(4-(4-((5-(4-fluoro-3-methylphenyl)imdazo [1,2-a]pyrazin-8-yl)amino)-1H-pyrazol-1-yl)piperidin-1-yl)ethyl)piperazin-1-yl)phenyl) piperidine-2,6-dione] | 24% | 7.9 nM

Continued by falling DC50, values first:

Row | IRAK3 ePL degradation Ymin | DC50 | SMILES
10 | 13% | 4 nM | Cc1cccc(-c2cnc(Nc3cnn(C4CCN(CCCN5CCN(c6ccc(C7CCC(=O)NC7=O)cc6)CC5)CC4)c3)c3nccn23)c1 (stereo not shown) [Compound 4, 3-(4-(4-(3-(4-(4-((5-(m-tolyl)imidazo[1,2-a]pyrazin-8-yl)amino)-1H-pyrazol-1-yl)piperidin-1-yl)propyl)piperazin-1-yl)phenyl) piperidine-2,6-dione]
11 | 15% | 3 nM | Cc1cccc(-c2cnc(Nc3cnn(C4CCN(CCN5CCN(c6ccc7c(c6)C(=O)N(C6CCC(=O)NC6=O)C7=O)CC5)CC4)c3)c3nccn23)c1 (stereo not shown) [Compound 2, 2-(2,6-dioxopiperidin-3-yl)-5-(4-(2-(4-(4-((5-(m-tolyl)imidazo[1,2-a]pyrazin-8-yl)amino)-1H-pyrazol-1-yl)piperidin-1-yl)ethyl)piperazin-1-yl)isoindoline-1,3-dione]
12 | 15% | 3 nM | Cc1cccc(-c2cnc(Nc3cnn(C4CCN(CCCCN5CCN(c6ccc(C7CCC(=O)NC7=O)cc6)CC5)CC4)c3)c3nccn23)c1 (stereo not shown) [Compound 3, 3-(4-(4-(4-(4-(4-((5-(m-tolyl)imidazo[1,2-a]pyrazin-8-yl)amino)-1H-pyrazol-1-yl)piperidin-1-yl)butyl)piperazin-1-yl)phenyl) piperidine-2,6-dione]
13 | 14% | 3 nM | Cc1cc(-c2ccc(Nc3cnn(C4CCN(CCN5CCN(c6ccc(C7CCC(=O)NC7=O)cc6)CC5)CC4)c3)c3nccn23)c(F)cc1F (stereo not shown) [Compound 12, 3-(4-(4-(2-(4-(4-((5-(2,4-difluoro-5-methylphenyl)imdazo [1,2-a]pyridin-8-yl)amino)-1H-pyrazol-1-yl)piperidin-1-yl)ethyl)piperazin-1-yl)phenyl) piperidine-2,6-dione]
14 | 29% | 1.7 nM | Cc1cc(-c2cnc(Nc3cnn([C@H]4CC[C@@H](CN5CCN(c6ccc(C7CCC(=O)NC7=O)cc6)CC5)CC4)c3)c3nccn23)c(F)cc1F (relative stereo) [Compound 71, 3-(4-(4-(((cis)-4-(4-((5-(2,4-difluoro-5-methylphenyl)imidazo[1,2-a]pyrazin-8-yl)amino)-1H-pyrazol-1-yl)cyclohexyl)methyl)piperazin-1-yl)phenyl) piperidine-2,6-dione]
15 | 15% | 1.1 nM | Cc1cc(-c2cnc(Nc3cnn([C@H]4CC[C@@H](CCN5CCN(c6ccc(C7CCC(=O)NC7=O)cc6)CC5)CC4)c3)c3nccn23)c(F)cc1F (stereo partly drawn) [Compound 14, 3-(4-(4-(2-((cis)-4-(4-((5-(2,4-difluoro-5-methylphenyl)imidazo[1,2-a]pyrazin-8-yl)amino)-1H-pyrazol-1-yl)cyclohexyl)ethyl)piperazin-1-yl)phenyl) piperidine-2,6-dione]
16 | 13% | 0.86 nM | Cc1cc(-c2cnc(Nc3cnn(C4CCN(CCN5[C@H](C)CN(c6ccc(C7CCC(=O)NC7=O)cc6)C[C@@H]5C)CC4)c3)c3nccn23)c(F)cc1F (stereo partly drawn) [Compound 13, 3-(4-((3S,5R)-4-(2-(4-(4-((5-(2,4-difluoro-5-methylphenyl)imdazo [1,2-a]pyrazin-8-yl)amino)-1H-pyrazol-1-yl)piperidin-1-yl)ethyl)-3,5-dimethylpiperazin-1-yl)phenyl) piperidine-2,6-dione]
17 | 14% | 0.6 nM | Cc1cc(-c2cnc(Nc3cnn(C4CCN(CCN5CCN(c6ccc(C7CCC(=O)NC7=O)cc6)C[C@@H]5C)CC4)c3)c3nccn23)c(F)cc1F (stereo partly drawn) [Compound 7, 3-(4-((S)-4-(2-(4-(4-((5-(2,4-difluoro-5-methylphenyl)imdazo [1,2-a]pyrazin-8-yl)amino)-1H-pyrazol-1-yl)piperidin-1-yl)ethyl)-3-methylpiperazin-1-yl)phenyl) piperidine-2,6-dione]
18 | 14% | 0.51 nM | Cc1cc(-c2cnc(Nc3cnn(C4CCN(CC(=O)N5CCN(c6ccc(C7CCC(=O)NC7=O)cc6)CC5)CC4)c3)c3nccn23)c(F)cc1F (stereo not shown) [Compound 17, 3-(4-(4-(2-(4-(4-((5-(2,4-difluoro-5-methylphenyl)imidazo[1,2-a]pyrazin-8-yl)amino)-1H-pyrazol-1-yl)piperidin-1-yl)acetyl)piperazin-1-yl)phenyl)piperidine-2,6-dione]
19 | 18% | 0.5 nM | Cc1cc(-c2cnc(Nc3cnn(C4CCN(CCN5CCN(c6ccc(C7CCC(=O)NC7=O)cc6)CC5)CC4)c3)c3nccn23)c(F)cc1F (stereo not shown) [Compound 8, 3-(4-(4-(2-(4-(4-((5-(2,4-difluoro-5-methylphenyl)imidazo[1,2-a]pyrazin-8-yl)amino)-1H-pyrazol-1-yl)piperidin-1-yl)ethyl)piperazin-1-yl)phenyl)piperidine-2,6-dione]
20 | 14% | 0.5 nM | Cc1cc(-c2cnc(Nc3cnn(C4CCN(CCN5CCN(c6ccc(C7CCC(=O)NC7=O)cc6)C[C@H]5C)CC4)c3)c3nccn23)c(F)cc1F (stereo partly drawn) [Compound 9, 3-(4-((R)-4-(2-(4-(4-((5-(2,4-difluoro-5-methylphenyl)imdazo [1,2-a]pyrazin-8-yl)amino)-1H-pyrazol-1-yl)piperidin-1-yl)ethyl)-3-methylpiperazin-1-yl)phenyl) piperidine-2,6-dione]
